Reference: paper PMC7339578, “Multiple circulating alkaloids and saponins from intravenous Kang-Ai injection inhibit human cytochrome P450 and UDP-glucuronosyltransferase isozymes: potential drug–drug interactions” (Chinese Medicine, 2020)
Where “and” joins values, the source holds several entries; their conditions need not be identical. Equal values may be shown once. Read-outs that look alike come from different tables or passages of the source.

Key:
[1] = Urinary (renal) excretion in rats after a 30-min infusion of Kang-Ai injection; type: in vivo, Sprague–Dawley rats; details: for CL renal: male, Sprague-Dawley, rat; for fe-U,0–12h (fraction of dose excreted into urine): rat urine 0–12 h; for fraction of dose excreted unchanged via renal plus hepatobiliary excretion (sum of fe-U and fe-B): rat urine + bile, 0–12 h
Summary of the method: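 Urine collected in metabolic cages at 0–4, 4–8, 8–12 h and bile at 0–3, 3–6, 6–9, 9–12 h after infusion start, weighed and frozen at −80 °C. Non-compartmental analysis; CLR and CLB as cumulative urinary or biliary amount divided by plasma AUC0-∞, fe-U and fe-B as cumulative amount/dose; mean ± SD (n = 3).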

CYP2B6 = biological target: T1, CYP2B6 (Homo sapiens, UniProt P20813); experiment: Inhibition of recombinant CYP2B6 (probe bupropion); type: in vitro ADME
T1 sequence (P20813 1-491): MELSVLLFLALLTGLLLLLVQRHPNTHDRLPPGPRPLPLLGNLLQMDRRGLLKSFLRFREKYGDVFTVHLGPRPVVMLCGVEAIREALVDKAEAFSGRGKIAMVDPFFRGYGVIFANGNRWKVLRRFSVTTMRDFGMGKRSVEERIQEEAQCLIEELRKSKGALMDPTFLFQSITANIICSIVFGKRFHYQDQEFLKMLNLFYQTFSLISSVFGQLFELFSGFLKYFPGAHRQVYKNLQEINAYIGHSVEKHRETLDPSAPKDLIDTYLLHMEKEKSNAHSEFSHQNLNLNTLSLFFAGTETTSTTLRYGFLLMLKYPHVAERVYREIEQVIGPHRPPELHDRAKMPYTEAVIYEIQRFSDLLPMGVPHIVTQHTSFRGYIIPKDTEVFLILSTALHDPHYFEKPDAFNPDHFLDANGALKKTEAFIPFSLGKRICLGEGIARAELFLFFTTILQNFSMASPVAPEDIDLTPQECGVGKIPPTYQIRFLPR
Method: (§1) In this study, phenacetin (100 μM), coumarin (100 μM), bupropion (100 μM), paclitaxel (60 μM), tolbutamide (200 μM), mephenytoin (100 μM), chlorzoxazone (200 μM) and nifedipine (40 μM) have been used as the probe substrates for CYP1A2, 2A6, 2B6, 2C8, 2C9, 2C19, 2E1 and 3A4, respectively.

CYP3A4 = CYP3A4 (Homo sapiens, UniProt P08684); experiment: Inhibition of recombinant CYP3A4 (probe nifedipine); type: in vitro ADME
Method: as §1

UGT1A1 = biological target: T2, UGT1A1 (Homo sapiens, UniProt P22309); experiment: Inhibition of expressed UGT1A1 (probe β-estradiol); type: in vitro ADME
T2 sequence (P22309 26-533): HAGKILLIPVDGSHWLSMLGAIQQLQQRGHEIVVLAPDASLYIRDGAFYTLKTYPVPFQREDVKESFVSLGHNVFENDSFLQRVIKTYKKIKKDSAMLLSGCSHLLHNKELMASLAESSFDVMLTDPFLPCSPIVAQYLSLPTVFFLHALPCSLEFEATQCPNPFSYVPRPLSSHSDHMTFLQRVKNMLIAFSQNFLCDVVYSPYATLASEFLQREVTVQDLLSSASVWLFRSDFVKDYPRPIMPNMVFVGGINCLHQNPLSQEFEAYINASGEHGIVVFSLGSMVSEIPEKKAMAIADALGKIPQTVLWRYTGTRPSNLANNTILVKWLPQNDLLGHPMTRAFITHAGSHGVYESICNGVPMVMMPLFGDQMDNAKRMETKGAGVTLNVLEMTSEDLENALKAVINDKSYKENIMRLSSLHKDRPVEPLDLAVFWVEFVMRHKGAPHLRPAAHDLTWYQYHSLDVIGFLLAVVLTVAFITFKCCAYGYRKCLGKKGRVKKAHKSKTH
Method: (§2) After centrifugation (13,800g, 10 min), the supernatant (8 μL) was obtained for determination by UHPLC system.
(§3) Similarly, β-estradiol (60 μM), propofol (40 μM) and 4-MU (350 μM) were typically used as the substrates for UGT1A1, 1A9 and 2B7, respectively. After optimization of incubation conditions (Additional file 1: Fig. S2), the protein concentrations for UGT1A1, 1A9, and 2B7 were 0.125, 0.05, and 0.05 mg/mL, respectively.

UGT2B7 = biological target: T3, UGT2B7 (Homo sapiens, UniProt P16662); experiment: Inhibition of expressed UGT2B7 (probe 4-MU); type: in vitro ADME
T3 sequence (P16662 24-529): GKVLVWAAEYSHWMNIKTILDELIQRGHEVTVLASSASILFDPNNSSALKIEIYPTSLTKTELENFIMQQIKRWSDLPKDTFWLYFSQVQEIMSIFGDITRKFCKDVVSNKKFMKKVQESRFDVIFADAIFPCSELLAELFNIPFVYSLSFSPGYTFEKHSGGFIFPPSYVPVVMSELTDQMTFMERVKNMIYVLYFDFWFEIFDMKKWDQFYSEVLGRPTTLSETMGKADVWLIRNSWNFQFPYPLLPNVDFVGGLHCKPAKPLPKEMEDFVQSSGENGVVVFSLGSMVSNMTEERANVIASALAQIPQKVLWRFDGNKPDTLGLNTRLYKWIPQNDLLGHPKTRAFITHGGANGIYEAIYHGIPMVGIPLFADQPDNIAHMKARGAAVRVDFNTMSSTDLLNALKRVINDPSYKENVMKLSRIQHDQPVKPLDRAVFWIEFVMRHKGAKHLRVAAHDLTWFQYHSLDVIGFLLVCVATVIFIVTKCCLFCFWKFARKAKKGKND
Method: as §2, §3

[2] = urine and plasma, Kang-Ai injection 6 mL/kg iv, read-out: CLR (renal excretory clearance) (converted)
[3] = recombinant isozyme, mean ± SD of triplicate, unit not given (IC50 classes in μM), read-out: IC50 towards CYP2B6
[4] = recombinant isozyme, mean ± SD of triplicate, unit not given (IC50 classes in μM), read-out: IC50 towards CYP3A4
[5] = recombinant isozyme, mean ± SD of triplicate, unit not given (IC50 classes in μM), read-out: IC50 towards UGT1A1
[6] = recombinant isozyme, mean ± SD of triplicate, unit not given (IC50 classes in μM), read-out: IC50 towards UGT2B7

Chain of CYP3A4 (P08684 whole entry): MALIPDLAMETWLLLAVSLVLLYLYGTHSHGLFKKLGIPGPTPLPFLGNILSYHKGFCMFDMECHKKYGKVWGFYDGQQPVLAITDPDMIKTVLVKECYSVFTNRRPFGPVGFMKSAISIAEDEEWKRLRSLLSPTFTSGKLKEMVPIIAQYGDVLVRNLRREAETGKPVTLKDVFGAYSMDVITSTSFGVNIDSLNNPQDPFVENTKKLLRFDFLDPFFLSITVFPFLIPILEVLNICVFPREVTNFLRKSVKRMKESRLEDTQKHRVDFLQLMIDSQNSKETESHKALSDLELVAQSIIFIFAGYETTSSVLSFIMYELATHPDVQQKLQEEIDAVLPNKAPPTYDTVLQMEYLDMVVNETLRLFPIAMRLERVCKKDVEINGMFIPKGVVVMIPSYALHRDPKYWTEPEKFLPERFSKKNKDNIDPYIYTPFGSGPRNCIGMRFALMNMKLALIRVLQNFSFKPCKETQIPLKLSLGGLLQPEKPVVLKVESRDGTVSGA

CC(C)=CCC[C@](C)(O[C@@H]1O[C@H](CO)[C@@H](O)[C@H](O)[C@H]1O)[C@H]1CC[C@]2(C)[C@@H]1[C@H](O)C[C@@H]1[C@@]3(C)CC[C@H](O)C(C)(C)[C@@H]3[C@@H](O[C@@H]3O[C@H](CO)[C@@H](O)[C@H](O)[C@H]3O[C@@H]3O[C@@H](C)[C@H](O)[C@@H](O)[C@H]3O)C[C@]12C [Compound C9, Ginsenoside Re]
CL renal [1, 2]: 0.767 mL/min | fe-U,0–12h (fraction of dose excreted into urine) ([1]; Kang-Ai injection 6 mL/kg iv): 29.54 ± 6.03% | fraction of dose excreted unchanged via renal plus hepatobiliary excretion (sum of fe-U and fe-B) ([1]; Kang-Ai injection 6 mL/kg iv): ~60% | IC50 (CYP2B6; [3]): > 100 µM | IC50 (CYP3A4; [4]): > 100 µM | IC50 (UGT1A1; [5]): > 100 µM | IC50 (UGT2B7; [6]): > 100 µM

O=C1CCC[C@@H]2[C@H]3CCCN4CCC[C@@H](CN12)[C@@H]34 [Compound A1, Matrine]
CL renal [1, 2]: 0.015 mL/min | fe-U,0–12h (fraction of dose excreted into urine) ([1]; Kang-Ai injection 6 mL/kg iv): 57.40% and 57.40 ± 4.88% | fraction of dose excreted unchanged via renal plus hepatobiliary excretion (sum of fe-U and fe-B) ([1]; Kang-Ai injection 6 mL/kg iv): exceeded 90% | IC50 (CYP2B6): > 100 µM | IC50 (CYP3A4): > 100 µM | IC50 (UGT1A1): > 100 µM | IC50 (UGT2B7): > 100 µM

CC(C)=CCC[C@](C)(O[C@@H]1O[C@H](CO[C@@H]2O[C@H](CO)[C@@H](O)[C@H](O)[C@H]2O)[C@@H](O)[C@H](O)[C@H]1O)[C@H]1CC[C@]2(C)[C@@H]1[C@H](O)C[C@@H]1[C@@]3(C)CC[C@H](O[C@@H]4O[C@H](CO)[C@@H](O)[C@H](O)[C@H]4O[C@@H]4O[C@H](CO)[C@@H](O)[C@H](O)[C@H]4O)C(C)(C)[C@@H]3CC[C@]12C [Compound D5, Ginsenoside Rb1]
CL renal [1, 2]: 0.00633 mL/min | fe-U,0–12h (fraction of dose excreted into urine) ([1]; Kang-Ai injection 6 mL/kg iv): 6.41 ± 1.47% | IC50 (CYP2B6; [3]): > 100 µM | IC50 (CYP3A4; [4]): > 100 µM | IC50 (UGT1A1; [5]): > 100 µM | IC50 (UGT2B7; [6]): > 100 µM

CC(C)=CCC[C@](C)(O)[C@H]1CC[C@]2(C)[C@@H]1[C@H](O)C[C@@H]1[C@@]3(C)CC[C@H](O)C(C)(C)[C@@H]3[C@@H](O[C@@H]3O[C@H](CO)[C@@H](O)[C@H](O)[C@H]3O[C@@H]3O[C@H](CO)[C@@H](O)[C@H](O)[C@H]3O)C[C@]12C [Compound C7, Ginsenoside Rf]
CL renal [1, 2]: 0.322 mL/min | fe-U,0–12h (fraction of dose excreted into urine) ([1]; Kang-Ai injection 6 mL/kg iv): 17.77 ± 3.90% | IC50 (CYP2B6; [3]): > 100 µM | IC50 (CYP3A4; [4]): > 100 µM | IC50 (UGT1A1; [5]): > 100 µM | IC50 (UGT2B7; [6]): > 100 µM

O=C1CCC[C@@H]2[C@H]3CCC[N+]4([O-])CCC[C@@H](CN12)[C@@H]34 (stereo partly drawn) [Compound A3, Oxymatrine]
CL renal ([1]; in vivo, iv): 1.18 mL/min | IC50 (CYP2B6; IC50 towards CYP2B6, recombinant isozyme, mean ± SD of triplicate, unit not given (IC50 classes in μM)): > 100 µM | IC50 (CYP3A4; IC50 towards CYP3A4, recombinant isozyme, mean ± SD of triplicate, unit not given (IC50 classes in μM)): > 100 µM | IC50 (UGT1A1; IC50 towards UGT1A1, recombinant isozyme, mean ± SD of triplicate, unit not given (IC50 classes in μM)): > 100 µM | IC50 (UGT2B7): > 100 µM

CC(C)=CCC[C@](C)(O[C@@H]1O[C@H](CO)[C@@H](O)[C@H](O)[C@H]1O)[C@H]1CC[C@]2(C)[C@@H]1[C@H](O)C[C@@H]1[C@@]3(C)CC[C@H](O[C@@H]4O[C@H](CO)[C@@H](O)[C@H](O)[C@H]4O[C@@H]4O[C@H](CO)[C@@H](O)[C@H](O)[C@H]4O)C(C)(C)[C@@H]3CC[C@]12C [Compound D2, Ginsenoside Rd]
CL renal [1, 2]: 0.0185 mL/min | fe-U,0–12h (fraction of dose excreted into urine) ([1]; Kang-Ai injection 6 mL/kg iv): 19.00 ± 5.33% | fraction of dose excreted unchanged via renal plus hepatobiliary excretion (sum of fe-U and fe-B) ([1]; Kang-Ai injection 6 mL/kg iv): about 25% | inhibition type (smallest AIC and SC) (CYP2B6; CYP2B6): Noncompetitive inhibition | Ki (CYP2B6; CYP2B6, competitive model): 10.2 ± 2.1 µM | Ki (CYP2B6; CYP2B6, mixed-type model): 36.3 ± 10.2 µM | α (CYP2B6; CYP2B6, mixed-type model): 1.0 ± 0.4 | Ki (CYP2B6; CYP2B6, noncompetitive model): 37.2 ± 2.3 µM | Cmax/Ki ([I]/Ki) (CYP2B6; CYP2B6, selected model, rat plasma Cmax): 0.02 | IC50 (CYP2B6; bupropion 100 μM, read-out: IC50 against CYP2B6): 20.2 µM | IC50 (CYP2B6; [3]): 20.2 ± 12.4 µM | inhibition type (smallest AIC and SC) (CYP3A4; CYP3A4): Noncompetitive inhibition | Ki (CYP3A4; CYP3A4, competitive model): 8.7 ± 2.3 µM | Ki (CYP3A4; CYP3A4, mixed-type model): 44.2 ± 16.2 µM | α (CYP3A4; CYP3A4, mixed-type model): 0.6 ± 0.3 | Ki (CYP3A4; CYP3A4, noncompetitive model): 32.8 ± 2.2 µM | Cmax/Ki ([I]/Ki) (CYP3A4; CYP3A4, selected model, rat plasma Cmax): 0.02 | IC50 (CYP3A4; nifedipine 40 μM, read-out: IC50 towards CYP3A4): 41 µM | IC50 (CYP3A4; [4]): 41 ± 25.8 µM | IC50 (UGT1A1; [5]): > 100 µM | IC50 (UGT2B7; [6]): > 100 µM

CC(C)=CCC[C@](C)(O[C@@H]1O[C@H](CO[C@@H]2O[C@@H](CO)[C@H](O)[C@H]2O)[C@@H](O)[C@H](O)[C@H]1O)[C@H]1CC[C@]2(C)[C@@H]1[C@H](O)C[C@@H]1[C@@]3(C)CC[C@H](O[C@@H]4O[C@H](CO)[C@@H](O)[C@H](O)[C@H]4O[C@@H]4O[C@H](CO)[C@@H](O)[C@H](O)[C@H]4O)C(C)(C)[C@@H]3CC[C@]12C [Compound D3, Ginsenoside Rc]
CL renal [1, 2]: 0.00967 mL/min | fe-U,0–12h (fraction of dose excreted into urine) ([1]; Kang-Ai injection 6 mL/kg iv): 10.48 ± 1.31% | IC50 (CYP2B6; [3]): > 100 µM | IC50 (CYP3A4; [4]): > 100 µM | IC50 (UGT1A1; [5]): > 100 µM | IC50 (UGT2B7; [6]): > 100 µM

CC(C)(O)[C@@H]1CC[C@](C)([C@H]2[C@@H](O)C[C@@]3(C)[C@@H]4C[C@H](O[C@@H]5O[C@H](CO)[C@@H](O)[C@H](O)[C@H]5O)[C@H]5C(C)(C)[C@@H](O[C@@H]6OC[C@@H](O)[C@H](O)[C@H]6O)CC[C@@]56C[C@@]46CC[C@]23C)O1 [Compound B2, Astragaloside IV]
fraction of dose excreted unchanged via renal plus hepatobiliary excretion (sum of fe-U and fe-B) ([1]; Kang-Ai injection 6 mL/kg iv): about 25% | IC50 (CYP2B6; [3]): > 100 µM | IC50 (CYP3A4; [4]): > 100 µM | IC50 (UGT1A1; [5]): > 100 µM | IC50 (UGT2B7; [6]): > 100 µM
